One data set relates to Breast cancer cell MCF-7. The data set is described as follows: Preliminary cytotoxicity test. It counts as cell-based, human.
Data set [1] relates to Non-small cell Lung cancer cell NCI-H460. The data set is described as follows: Preliminary cytotoxicity test. It counts as cell-based, human.
In another data set the test system is CNS cancer cell SF-268. The data set is described as follows: Preliminary cytotoxicity test. The class given is cell-based, human.
A further data set has as its system Hep2,2,15. The note with it: Hep2,2,15, Table 1; cited from earlier work.
Data set [2] has as its system NCI (NCI-H661): human lung large cell carcinoma. The data set is described as follows: In vitro anticancer assay (cytotoxicity), solid tumor cells.
The subject of a further data set is KB cell. The note with it: Table 1; cited from earlier work.
Another data set has as its target T1, topoisomerase I (Homo sapiens, UniProt P11387).
T1 sequence (P11387 1-765): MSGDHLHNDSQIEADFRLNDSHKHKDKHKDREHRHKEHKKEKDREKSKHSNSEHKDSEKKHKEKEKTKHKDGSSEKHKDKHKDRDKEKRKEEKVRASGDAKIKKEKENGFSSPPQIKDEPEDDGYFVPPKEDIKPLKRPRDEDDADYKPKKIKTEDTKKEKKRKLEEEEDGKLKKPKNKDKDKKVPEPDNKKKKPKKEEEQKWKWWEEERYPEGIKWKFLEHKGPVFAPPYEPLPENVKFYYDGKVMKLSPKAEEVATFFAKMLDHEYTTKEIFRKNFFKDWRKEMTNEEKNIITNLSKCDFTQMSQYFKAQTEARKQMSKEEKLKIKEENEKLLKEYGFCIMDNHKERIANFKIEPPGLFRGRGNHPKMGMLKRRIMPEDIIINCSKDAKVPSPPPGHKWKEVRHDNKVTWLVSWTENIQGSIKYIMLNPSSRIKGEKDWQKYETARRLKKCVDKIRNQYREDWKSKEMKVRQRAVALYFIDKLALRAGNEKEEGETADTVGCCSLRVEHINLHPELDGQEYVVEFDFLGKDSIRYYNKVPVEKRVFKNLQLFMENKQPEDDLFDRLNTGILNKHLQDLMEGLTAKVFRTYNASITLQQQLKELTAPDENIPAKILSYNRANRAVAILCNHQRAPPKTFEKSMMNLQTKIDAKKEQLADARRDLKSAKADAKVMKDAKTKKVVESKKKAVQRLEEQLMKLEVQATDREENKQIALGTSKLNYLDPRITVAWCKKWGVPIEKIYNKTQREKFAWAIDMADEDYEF
Briefly: Topoisomerase I assay, cleavage of supercoiled pGEM9zf(−) DNA, gel electrophoresis. The class given is biochemical. The conditions noted are these: for topo I inhibitor, overall conclusion: from FIGS. 1 and 2.

For data set [3], the system named is Hela: human cervix epitheloid carcinoma. The data set is described as follows: In vitro anticancer assay (cytotoxicity), solid tumor cells.
The test system of data set [4] is KB: human oral epidermoid carcinoma. The description is as above.
In data set [5] the test system is Ovarian Cancer cell lines. The data set is described as follows: NCI panel, average of cell lines. The conditions noted are these: Homo sapiens, read-out: cytotoxicity GI50, average value of all the cancer cell lines.
Data set [6] concerns Prostate Cancer cell lines. Briefly: NCI panel, average of cell lines. The conditions noted are these: Homo sapiens, read-out: cytotoxicity GI50, average value of all the cancer cell lines.
The test system of a further data set is Breast Cancer cell lines. Briefly: NCI panel, average of cell lines. The conditions noted are these: Homo sapiens, read-out: cytotoxicity GI50, average value of all the cancer cell lines.
Data set [7] concerns Non-Small Cell Lung Cancer cell lines. The data set is described as follows: NCI panel, average of cell lines. The conditions noted are these: Homo sapiens, read-out: cytotoxicity GI50, average value of all the cancer cell lines.
The next data set relates to CNS Cancer cell lines. The data set is described as follows: NCI panel, average of cell lines. The note with it: Homo sapiens, read-out: cytotoxicity GI50, average value of all the cancer cell lines.
The subject of the next data set is Renal Cancer cell lines. Briefly: NCI panel, average of cell lines. The note with it: Homo sapiens, read-out: cytotoxicity GI50, average value of all the cancer cell lines.
In another data set the test system is K-562 cells. The data set is described as follows: Cell cycle distribution by flow cytometry. The class given is cell-based, human. The note with it: K-562, 72 hrs. In general terms: A flow cytometer gives signals particle by particle.
A further data set relates to Leukemia cell lines. The data set is described as follows: NCI panel, average of cell lines. The conditions noted are these: Homo sapiens, read-out: cytotoxicity GI50, average value of all the cancer cell lines.
Another data set deals with Melanoma cell lines. Briefly: NCI panel, average of cell lines. The note with it: Homo sapiens, read-out: cytotoxicity GI50, average value of all the cancer cell lines.
The next data set deals with Colon Cancer cell lines. Briefly: NCI panel, average of cell lines. The conditions noted are these: Homo sapiens, read-out: cytotoxicity GI50, average value of all the cancer cell lines.

Entries after “also recorded” stand apart in the source; their conditions may differ. Like-named read-outs stand apart in the source and are kept apart here. Marks after values point to notes of the source that are not given here.

Experimental for K-562 cells: Samples of 1×10^6 Hep G2 cells were plated on a 6 cm tissue culture dish, and the cells were allowed to recover 24 hrs before any treatment. Thereafter, DMSO or a test compound (1 μM, 10 μM or 50 μM) was added to the cells for 1 hr in complete medium at 37° C., washed twice with PBS, and incubated in fresh media for the incubation time. Cell were harvested with trypsin and washed twice with PBS. Samples were fixed in 70% ethanol and stored at 4° C. for at least 24 hrs and then washed once with McIlvaine's buffer (0.2M Na2HPO4, 0.1M citric acid, pH=7.5) and once again with PBS. Samples were stained with PI (propidium iodide) staining solution (PBS containing 100 μg/ml, RNase A and 10 μg/ml PI [Sigma]), processed on a Coulter Elite flow cytometry, and the data analyzed with the Mutiplus AV program.

“2-(6-(2-thioanisyl)-3-hexen-1,5-diynyl)benzonitrile [Compound 31]”: the Growth percentage was found to be 62% in the data set with Breast cancer cell MCF-7, 100% in data set [1] and 164% in the data set on CNS cancer cell SF-268.

As for “2-(6-(2-xylenyl)-3-hexen-1,5-diyne)benzonitrile [Compound 24]”, the Growth percentage with Breast cancer cell MCF-7 is reported as 101%; in [1] it was 129%; in the data set on CNS cancer cell SF-268, 111%.

By IC50 is commonly meant the concentration needed to halve the response being measured. With `N#Cc1ccccc1C#C/C=C\C#CCOC1CCCCO1` (stereo not shown) [Compound 1, 2-(7-(Tetrahydropyranyloxy)-3(Z)-hepten-1,5-diynyl)-benzonitrile], the 50% inhibitory concentration (IC50) with Hep2,2,15 is greater than 10 µM. The “IC50 Values of Cytotoxicities” value in data set [2] is given as “—* (“—” means IC50 > 20 μg/ml)”.

With `CCCCC#C/C=C\C#Cc1ccccc1C#N` [Compound 3, 2-(3(Z)-Decen-1,5-diynyl)benzonitrile], in the data set with KB cell, the IC50 was less than 0.01 µM.

On to `CCCCCC#C/C=C\C#Cc1ccccc1C#N` [Compound 4, 2-(3(Z)-Undecen-1,5-diynyl)benzonitrile], for which the IC50 with Hep2,2,15 is greater than 10 µM; with KB cell, less than 0.01 µM.

For `CCCCC#C/C=C\C#Cc1ccccc1` [Compound 6, (3Z)-Decen-1,5-diynylbenzene], the “topo I inhibitor, overall conclusion” value at topoisomerase I is listed as “not Topo I inhibitors”.

Consider `N#Cc1ccccc1C#Cc1ccccc1C#CCOC1CCCCO1` (stereo not shown) [Compound 7, 2-(2-(3-Tetrahydro-pyranyl-5-oxy-1-propynylphenyl)ethynyl)benzonitrile], for which the “IC50 Values of Cytotoxicities” value in data set [2] is given as “— (“—” means IC50 > 20 μg/ml)”. Further, the “inhibition of topo I” value is “untwisting DNA was revealed” on topoisomerase I (0.87 μM compound), “no Topo I inhibition; also recorded: untwisting DNA was revealed” against topoisomerase I (8.7 μM compound) and “no Topo I inhibition; also recorded: untwisting DNA was revealed” against topoisomerase I (87 μM compound).

In the case of `N#Cc1ccccc1C#Cc1ccccc1C#CCCCOC1CCCCO1` (stereo not shown) [Compound 8], the “IC50 Values of Cytotoxicities” value in [2] is on record as “— (“—” means IC50 > 20 μg/ml)”. Also, the “inhibition of topo I” value is listed as “untwisting DNA was revealed” at topoisomerase I (0.87 μM compound), “no Topo I inhibition; also recorded: untwisting DNA was revealed” on topoisomerase I (8.7 μM compound) and “no Topo I inhibition; also recorded: untwisting DNA was revealed” against topoisomerase I (87 μM compound).

`CCCCC#Cc1ccccc1C#Cc1ccccc1C#N` [Compound 9, 2-(2-(2-Hexynylphenyl)ethynyl)benzonitrile]: the “IC50 Values of Cytotoxicities” value in data set [2] is listed as “— (“—” means IC50 > 20 μg/ml)”.

For the compound `CCCCCC#Cc1ccccc1C#Cc1ccccc1C#N` [Compound 10, 2-(2-(2-Heptynylphenyl)ethynyl)benzonitrile], the “IC50 Values of Cytotoxicities” value in data set [3] and in data set [4] was “— (“—” means IC50 > 20 μg/ml)” in each case.

As to `CCCCCCC#C/C=C\C#Cc1ccc(C#C/C=C\C#CCCCCCC)cc1` [Compound 11, 1,4-Bis-(3-(Z)-Dodecen-1,5-diynyl)benzene], the “topo I inhibitor, overall conclusion” value at topoisomerase I is on record as “not topo I inhibitors”.

`CCCCCCC#C/C=C\C#Cc1ccc(-c2ccc(C#C/C=C\C#CCCCCCC)cc2)cc1` [Compound 12, 4,4′-Bis-(3-(Z)-Dodecen-1,5-diynyl)biphenyl]: the “topo I inhibitor, overall conclusion” value at topoisomerase I is on record as “not topo I inhibitors”.

On to `CCCCCCC#C/C=C\C#Cc1ccc(C(F)(F)F)cc1` [Compound 18, 4-(3-(Z)-Dodecen-1,5-diynyl)trifluoromethylbenzene], for which the “topo I inhibitor, overall conclusion” value at topoisomerase I is “displayed topo I inhibitory activities”.

Consider `CCCCCCC#C/C=C\C#Cc1cccc(C(F)(F)F)c1` [Compound 19, 3-(3-(Z)-Dodecen-1,5-diynyl)trifluoromethylbenzene], for which, in data set [3], the “IC50 Values of Cytotoxicities” value is on record as “— (“—” means IC50 > 20 μg/ml)”.

`CCCCCCC#C/C=C\C#Cc1ccc([N+](=O)[O-])cc1` [Compound 21, 4-nitro-1-(3-(Z)-dodecen-1,5-diynyl)benzene]: the half-inhibitory concentration (IC50) in data set [4] (Homo sapiens, read-out: IC50 Values of Cytotoxicities) is greater than 20 µg/mL.

Turning to `CCCCCCC#C/C=C\C#Cc1ccccc1C(=O)O` [Compound 22, 2-(3-(Z)-Dodecen-1,5-diynyl)benzoate], the “IC50 Values of Cytotoxicities” value in data set [2] was “— (“—” means IC50 > 20 μg/ml)”.

Take `COc1ccc(C#CC=CC#Cc2ccccc2C#N)cc1` [Compound 25]: the values for the Growth percentage (with Breast cancer cell MCF-7; in [1]; in the data set with CNS cancer cell SF-268) were 90%, 48% and 91%, respectively.

`N#Cc1ccccc1C#CC=CC#Cc1ccccn1` [Compound 27, 2-(6-(2-pyridinyl)-3-hexen-1,5-diynyl)benzonitrile]: the GI50 was found to be 27.3 µM in [5]; 21.2 µM in [6]; 14.3 µM in the data set on Breast Cancer cell lines; 19.6 µM in [7]; 20.9 µM in the data set with CNS Cancer cell lines; 21.7 µM in the data set with Renal Cancer cell lines. The GI50 was 12.8 µM with Leukemia cell lines and 14.2 µM in the data set on Melanoma cell lines. For the same compound, the Growth percentage was 49% in the data set with Breast cancer cell MCF-7, 23* % in [1] and 83% in the data set with CNS cancer cell SF-268. The “accumulation of G2/M stage cells” value in the data set on K-562 cells is reported as “an accumulation of G2/M stage cells”.

As to `Cc1ccc(C#CC=CC#Cc2ccccc2C#N)cc1` [Compound 28, 2-(6-(4-tolyl)-3-hexen-1,5-diynyl)benzonitrile], the Growth percentage in the data set with Breast cancer cell MCF-7 was found to be 80%; in [1], 96%; in the data set with CNS cancer cell SF-268, 105%.

`N#Cc1ccccc1C#CC=CC#Cc1cccs1` [Compound 29, 2-(6-(2-thienyl)-3-hexen-1,5-diynyl)benzonitrile]: the Growth percentage with Breast cancer cell MCF-7 turned out to be 49%; in [1] it was 34%; with CNS cancer cell SF-268, 96%.

On to `N#Cc1ccccc1C#CC=CC#Cc1cnccn1` [Compound 30, 2-(6-(2-pyrazinyl)-3-hexen-1,5-diynyl)benzonitrile], for which the GI50 was determined as 38.1 µM in data set [5]; 33.6 µM in [6]; 33.3 µM in the data set with Breast Cancer cell lines; 11.8 µM in data set [7]; 32.2 µM in the data set with CNS Cancer cell lines; 27 µM in the data set with Renal Cancer cell lines. Further, the GI50 with Colon Cancer cell lines was found to be 7.54 µM; with Leukemia cell lines, 5.05 µM; in the data set with Melanoma cell lines, 18.7 µM. For the same compound, the Growth percentage in the data set with Breast cancer cell MCF-7 was 73%; in data set [1], 8* %; with CNS cancer cell SF-268 it was 84%. Besides, the “accumulation of G2/M stage cells” value with K-562 cells is listed as “an accumulation of G2/M stage cells”.

Turning to `N#Cc1ccccc1C#CC=CC#Cc1ccc(N)cc1` [Compound 33, 2-[6-(p-anilinyl)-3-hexen-1,5-diynyl]benzonitrile], the Growth percentage with Breast cancer cell MCF-7 stood at 100%; in data set [1] it was 94%; with CNS cancer cell SF-268, 92%.

Regarding `FC(F)(F)c1ccc(C#Cc2ccccc2C#Cc2ccc(C(F)(F)F)cc2)cc1` [Compound 42], the results for the Growth percentage (with Breast cancer cell MCF-7; in data set [1]; in the data set on CNS cancer cell SF-268) were 37%, 78% and 55%, respectively.

Regarding `CC[C@@]1(O)C(=O)OCc2c1cc1n(c2=O)Cc2cc3ccccc3nc2-1` [camptothecin, reference compound], the “inhibition of topo I” value at topoisomerase I is reported as “less topo I inhibitory activity; also recorded: observable inhibition of topo I”.

Source of the values: patent publication US7332623B2 (Kaohsiung Medical University, priority 2003, dated 2008).
